Measured values: patent US20080262082A1, “COMPOSITION CONTAINING S-(-)-TULIPALIN B OR ACETYLATED-S-(-)-TULIPALIN B” (BIO SPECTRUM, INC., priority 2007, published 2008)

Tests used:
Format in all cases: cell-based
[1] = test system: Clostridium perfringens KCCM 12098; conditions: C. perfringens; broth dilution, 37° C., 24 hours
[2] = test system: Helicobacter pylori KCTC 5335; assay: Agar diffusion antibacterial test (anaerobic); conditions: H. pylori
[3] = test system: Listeria monocytogenes KCTC 3569; assay: Agar diffusion antibacterial test (aerobic); conditions: L. monocytogenes
[4] = test system: Corynebacterium glutamicum KCTC 1445; assay: Agar diffusion antibacterial test (anaerobic); conditions: C. glutamicum
[5] = test system: Bacteroides fragilis KCTC 3688; assay: MIC by broth dilution method; conditions: B. fragilis, 37° C., 24 hours
[6] = test system: Corynebacterium glutamicum KCTC 1445; assay: MIC by broth dilution method; conditions: C. glutamicum, 37° C., 24 hours
[7] = test system: Actiinobacillus ureae KCTC 2674; assay: MIC by broth dilution method; conditions: A. ureae, 37° C., 24 hours
[8] = test system: Campylobacter jejuni KCTC 5327; assay: MIC by broth dilution method; conditions: C. jejuni, 37° C., 24 hours
[9] = test system: Neisseria meningitidis KCCM 41562; assay: Agar diffusion antibacterial test (aerobic); conditions: N. meningitidis
[10] = test system: Staphylococcus aureus KCTC 1916; assay: Agar diffusion antibacterial test (aerobic); conditions: S. aureus
[11] = test system: Pseudomonas aeruginosa KCTC 1637; assay: Agar diffusion antibacterial test (aerobic); conditions: P. aeruginosa
[12] = test system: Streptococcus mutans KCTC 3065; assay: Agar diffusion antibacterial test (aerobic); conditions: S. mutans
[13] = test system: Aeromonas salmonicida KCTC 12266; assay: Agar diffusion antibacterial test (aerobic); conditions: A. salmonicida
[14] = test system: 18 species of pathogenic bacteria (aerobic); assay: Agar diffusion antibacterial test, overall (aerobic); conditions: all kinds of test bacteria (aerobic), agar diffusion
[15] = test system: Propionibacterium granulosum ATCC 25564; assay: MIC by broth dilution method; conditions: P. granulosum, 37° C., 24 hours
[16] = test system: Campylobacter jejuni KCTC 5327; assay: Agar diffusion antibacterial test (anaerobic); conditions: C. jejuni
[17] = test system: Bacteroides fragilis KCTC 3688; assay: Agar diffusion antibacterial test (anaerobic); conditions: B. fragilis
[18] = test system: Bordetella bronchiseptica KCCM 21998; assay: Agar diffusion antibacterial test (aerobic); conditions: B. bronchiseptica
[19] = test system: Yersinia enterocolitica KCCM 41657; assay: Agar diffusion antibacterial test (aerobic); conditions: Y. enterocolitica

C=C1C(=O)OC[C@H]1O [S-(−)-tulipalin B, (4S)-4-hydroxy-3-methylene-oxolan-2-one]
MIC [1]: 0.08% | Inhibitory zone diameter ([2]; treatment concentration 0.01%): 10.5 mm | Inhibitory zone diameter ([2]; treatment concentration 0.03%): 12 mm | Inhibitory zone diameter ([2]; treatment concentration 0.1%): 14 mm | Inhibitory zone diameter ([2]; treatment concentration 0.3%): 16 mm | Inhibitory zone diameter ([2]; treatment concentration 1.0%): 18 mm | Inhibitory zone diameter ([3]; treatment concentration 0.1%): 11 mm | Inhibitory zone diameter ([3]; treatment concentration 0.3%): 13 mm | Inhibitory zone diameter ([3]; treatment concentration 1.0%): 16 mm | Inhibitory zone diameter ([4]; treatment concentration 0.1%): 10.5 mm | Inhibitory zone diameter ([4]; treatment concentration 0.3%): 11 mm | Inhibitory zone diameter ([4]; treatment concentration 1.0%): 12 mm | MIC [5]: 0.01% | MIC [6]: 0.10% | MIC [7]: 0.03% | MIC [8]: 0.008% | Inhibitory zone diameter ([9]; treatment concentration 0.03%): 11 mm | Inhibitory zone diameter ([9]; treatment concentration 0.1%): 12 mm | Inhibitory zone diameter ([9]; treatment concentration 0.3%): 16 mm | Inhibitory zone diameter ([9]; treatment concentration 1.0%): 18 mm | Inhibitory zone diameter ([10]; treatment concentration 0.1%): 12 mm | Inhibitory zone diameter ([10]; treatment concentration 0.3%): 15 mm | Inhibitory zone diameter ([10]; treatment concentration 1.0%): 18 mm | Inhibitory zone diameter ([11]; treatment concentration 0.3%): 12 mm | Inhibitory zone diameter ([11]; treatment concentration 1.0%): 14 mm | Inhibitory zone diameter ([12]; treatment concentration 0.1%): 11 mm | Inhibitory zone diameter ([12]; treatment concentration 0.3%): 13 mm | Inhibitory zone diameter ([12]; treatment concentration 1.0%): 16 mm | Inhibitory zone diameter ([13]; treatment concentration 0.01%): 11 mm | Inhibitory zone diameter ([13]; treatment concentration 0.03%): 12 mm | Inhibitory zone diameter ([13]; treatment concentration 0.1%): 13 mm | Inhibitory zone diameter ([13]; treatment concentration 0.3%): 17 mm | Inhibitory zone diameter ([13]; treatment concentration 1.0%): 19 mm | Antibacterial effects [14]: high antibacterial effects | MIC [15]: 0.03% | Inhibitory zone diameter ([16]; treatment concentration 0.01%): 11.5 mm | Inhibitory zone diameter ([16]; treatment concentration 0.03%): 13 mm | Inhibitory zone diameter ([16]; treatment concentration 0.1%): 15 mm | Inhibitory zone diameter ([16]; treatment concentration 0.3%): 16 mm | Inhibitory zone diameter ([16]; treatment concentration 1.0%): 18 mm | Inhibitory zone diameter ([17]; treatment concentration 0.01%): 10.5 mm | Inhibitory zone diameter ([17]; treatment concentration 0.03%): 12 mm | Inhibitory zone diameter ([17]; treatment concentration 0.1%): 14 mm | Inhibitory zone diameter ([17]; treatment concentration 0.3%): 16 mm | Inhibitory zone diameter ([17]; treatment concentration 1.0%): 18 mm | Inhibitory zone diameter ([18]; treatment concentration 0.03%): 12 mm | Inhibitory zone diameter ([18]; treatment concentration 0.1%): 14 mm | Inhibitory zone diameter ([18]; treatment concentration 0.3%): 18 mm | Inhibitory zone diameter ([18]; treatment concentration 1.0%): 20 mm | Inhibitory zone diameter ([19]; treatment concentration 0.03%): 11.5 mm | Inhibitory zone diameter ([19]; treatment concentration 0.1%): 13 mm | Inhibitory zone diameter ([19]; treatment concentration 0.3%): 17 mm | Inhibitory zone diameter ([19]; treatment concentration 1.0%): 19 mm
